GI50 and TGI data for eight molecules are collected here from PubChem BioAssay (NCI).

Some test systems named below: RXF 393 renal; SNB-75 CNS; UACC-62 melanoma; A549 NSCLC; SK-OV-3 ovarian; T-47D breast; HCT-116 colon; HOP-62 NSCLC; MDA-MB-435; SF-295 CNS.
Assay in all cases: NCI tumour cell line growth inhibition, 48 h

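A five-concentration, 48-hour dose response in 96-well plates underlies each endpoint, interpolated linearly between surrounding concentrations. GI50 = concentration required for 50% inhibition of growth. TGI: total growth inhibition.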

For `COc1cc2c3c(n(CCCN(C)CCO)c(=O)c2cc1OC)-c1cc2c(cc1C3=O)OCO2`, the GI50 is 27.4 µM with RXF 393 renal; 1.54 µM with UACC-62 melanoma; 9.49 µM in the assay on A549 NSCLC; 11 µM in the assay on SK-OV-3 ovarian; 10.8 µM with T-47D breast; 1.9 µM in the assay on HCT-116 colon. The GI50 in the assay with HOP-62 NSCLC was 1.17 µM; in the assay with MDA-MB-435, 16.6 µM; in the assay with SF-295 CNS, 0.672 µM. Also, the TGI was above 73.2 µM in the assay on RXF 393 renal; above 58.5 µM with SNB-75 CNS; 24.7 µM with UACC-62 melanoma; above 100 µM in the assay with A549 NSCLC; above 100 µM in the assay with SK-OV-3 ovarian; above 100 µM in the assay with T-47D breast. Besides, the TGI with HCT-116 colon was 30.7 µM; in the assay with HOP-62 NSCLC, above 100 µM; in the assay with MDA-MB-435, above 100 µM; in the assay on SF-295 CNS it was above 100 µM.

Turning to `Clc1nc(Cl)c2ncn(Cc3ccccc3Cn3cnc4c(Cl)nc(Cl)nc43)c2n1`, the GI50 was 1.36 µM in the assay on RXF 393 renal; 3.9 µM with SNB-75 CNS; 1.66 µM with UACC-62 melanoma; 6.9 µM in the assay with A549 NSCLC; 15.3 µM in the assay with SK-OV-3 ovarian; 1.73 µM with T-47D breast. Besides, the GI50 is 2.06 µM in the assay with HCT-116 colon, 9.11 µM in the assay on HOP-62 NSCLC, 2.31 µM in the assay with MDA-MB-435 and 7.05 µM with SF-295 CNS. Moreover, the TGI in the assay on RXF 393 renal came to 3.29 µM; in the assay on SNB-75 CNS, 16.4 µM; with UACC-62 melanoma, 3.25 µM; in the assay on A549 NSCLC it was 21.4 µM; in the assay on SK-OV-3 ovarian, 33.7 µM; in the assay on T-47D breast it was 4.71 µM. Also, the TGI in the assay on HCT-116 colon turned out to be 5.98 µM; in the assay on HOP-62 NSCLC, 19.3 µM; with MDA-MB-435, 5.58 µM; in the assay on SF-295 CNS, 22.4 µM.

With `COc1ccc(-c2ccc(NNC(=O)c3ccc(F)cc3)nn2)cc1OC`, the GI50 was 63 µM in the assay with RXF 393 renal; 26.9 µM in the assay on SNB-75 CNS; above 100 µM with UACC-62 melanoma; 99.5 µM with A549 NSCLC; above 100 µM in the assay on SK-OV-3 ovarian; 28.1 µM in the assay on T-47D breast. The GI50 with HCT-116 colon was above 100 µM; in the assay with HOP-62 NSCLC it was 91.7 µM; in the assay with MDA-MB-435, above 100 µM; in the assay on SF-295 CNS it was above 100 µM. Further, the TGI in the assay on RXF 393 renal, with SNB-75 CNS, with UACC-62 melanoma, in the assay on A549 NSCLC, in the assay with SK-OV-3 ovarian and with T-47D breast was above 100 µM throughout. The TGI in the assay with HCT-116 colon, with HOP-62 NSCLC, with MDA-MB-435 and with SF-295 CNS was above 100 µM in each case.

In the case of `NC(=O)CNc1ccc([As]=[As]c2ccc(NCC(N)=O)cc2)cc1` (centres undefined), the GI50 in the assay on RXF 393 renal is 3.04 µM; with SNB-75 CNS, 1.73 µM; in the assay with UACC-62 melanoma it was 4.2 µM; with A549 NSCLC it was 23.5 µM; with SK-OV-3 ovarian, 22.6 µM; with T-47D breast, 1.44 µM. In addition, the GI50 with HCT-116 colon is 3.64 µM; in the assay on HOP-62 NSCLC, 3.94 µM; with MDA-MB-435, 6.24 µM; in the assay with SF-295 CNS, 8.91 µM. Moreover, the TGI with RXF 393 renal was 16.4 µM; in the assay on SNB-75 CNS it was 9.13 µM; with UACC-62 melanoma, 18.2 µM; with A549 NSCLC, above 100 µM; with SK-OV-3 ovarian, 71.4 µM; in the assay on T-47D breast it was 17.4 µM. Besides, the TGI came to 16.3 µM in the assay with HCT-116 colon, 14.6 µM with HOP-62 NSCLC, 56.6 µM in the assay on MDA-MB-435 and 36.9 µM in the assay on SF-295 CNS.

In the case of `CCOC(=O)c1sc(NC(=O)COc2cccc(/C=C3\CCc4cc(OC)ccc4C3=O)c2)nc1C`, the GI50 in the assay with RXF 393 renal is 2.83 µM; in the assay with SNB-75 CNS, 2.51 µM; with UACC-62 melanoma, 5.43 µM; in the assay with A549 NSCLC it was 34.7 µM; with SK-OV-3 ovarian it was 6.39 µM; with T-47D breast, 3.75 µM. Moreover, the GI50 with HCT-116 colon is 3.18 µM; in the assay on HOP-62 NSCLC it was 18.2 µM; in the assay with MDA-MB-435, 2.25 µM; in the assay on SF-295 CNS, 5.45 µM. For the same molecule, the TGI was 8.44 µM with RXF 393 renal; above 100 µM with SNB-75 CNS; above 100 µM in the assay with UACC-62 melanoma; above 100 µM with A549 NSCLC; above 100 µM in the assay on SK-OV-3 ovarian; above 100 µM in the assay with T-47D breast. Further, the TGI in the assay with HCT-116 colon was above 100 µM; with HOP-62 NSCLC, 55.2 µM; in the assay on MDA-MB-435, above 100 µM; with SF-295 CNS, above 100 µM.

Take `O=C(Nc1ccc(Cl)cc1)Nc1nccs1`: the GI50 in the assay on RXF 393 renal is 1.49 µM; in the assay on SNB-75 CNS, 2.02 µM; in the assay on UACC-62 melanoma, 0.756 µM; in the assay on A549 NSCLC, 0.775 µM; with SK-OV-3 ovarian, 5.04 µM; in the assay on T-47D breast, 2.38 µM. Also, the GI50 in the assay on HCT-116 colon is 0.49 µM; in the assay with HOP-62 NSCLC, 15.1 µM; in the assay on MDA-MB-435 it was 0.207 µM; with SF-295 CNS it was 2.73 µM. For the same molecule, the TGI in the assay with RXF 393 renal is 6.53 µM; in the assay on SNB-75 CNS, above 100 µM; in the assay with UACC-62 melanoma, 57.9 µM; in the assay on A549 NSCLC it was above 100 µM; in the assay with SK-OV-3 ovarian, above 100 µM; with T-47D breast it was above 100 µM. The TGI with HCT-116 colon is 52.8 µM; in the assay with HOP-62 NSCLC, above 100 µM; in the assay on MDA-MB-435, 0.585 µM; with SF-295 CNS, 34.7 µM.

Regarding `Cn1c(=S)c2[nH]c(SCCCc3ccccc3)nc2n(C)c1=O`, the TGI in the assay with RXF 393 renal is above 100 µM; in the assay with SNB-75 CNS, 84.5 µM; with UACC-62 melanoma, above 100 µM; in the assay on A549 NSCLC it was 72 µM; in the assay with SK-OV-3 ovarian, above 100 µM; in the assay with T-47D breast, above 100 µM. The TGI is above 100 µM in the assay on HCT-116 colon, above 100 µM with HOP-62 NSCLC, above 100 µM with MDA-MB-435 and 79.9 µM with SF-295 CNS.

In the case of `CNC(C)[C@H]1CCC2C3CC=C4C(=O)[C@@H](NC(=O)C=C(C)C)CC[C@]4(C)C3CC[C@@]21C` (some centres undefined), the GI50 is 1.45 µM in the assay with RXF 393 renal; 2.26 µM with SNB-75 CNS; 1.84 µM in the assay with UACC-62 melanoma; 2.46 µM with A549 NSCLC; 2.75 µM in the assay on SK-OV-3 ovarian; 0.925 µM in the assay with T-47D breast. The GI50 in the assay on HCT-116 colon was 1.09 µM; in the assay on HOP-62 NSCLC, 1.7 µM; in the assay on MDA-MB-435, 1.36 µM; in the assay on SF-295 CNS it was 1.63 µM. Besides, the TGI in the assay with RXF 393 renal was 3.22 µM; in the assay with SNB-75 CNS, 10.4 µM; with UACC-62 melanoma, 3.54 µM; in the assay with A549 NSCLC, 6.82 µM; in the assay with SK-OV-3 ovarian, 9.5 µM; with T-47D breast, 5.05 µM. Also, the TGI in the assay on HCT-116 colon was found to be 2.53 µM; in the assay with HOP-62 NSCLC, 3.63 µM; in the assay with MDA-MB-435, 3.27 µM; in the assay on SF-295 CNS it was 4.41 µM.
